According to patent US4804651A, “Methods and compositions for the treatment of psoriasis” (Board of Regents, The University of Texas System, priority 1987, dated 1989):
Read-outs that look alike come from different tables or passages of the source.

How the values were obtained:
[1] = cited from earlier work
[2] = Progression of AIDS in the individual treated for psoriasis; format: in vivo, human; conditions: 800 mg orally per day
From the text: Of the following examples, examples I through IV disclose toxicity data obtained from the manufacturer of AZT, Burroughs Wellcome Drug Co., developed during the course of obtaining FDA approval for use of the drug in the treatment of AIDS. However, treatment protocols effective in treating psoriasis are similar.
An individual developed severe psoriasis and AIDS-related complex (ARC). As their immunity diminished over the next eight months to a T4 count of 14/mm^3, the psoriasis became more extensive, including 60% of their body, all nails and digits.
Ten months after developing the ARC and psoriasis, the individual developed Pneumocystis carinii pneumonia (PCP) and esophageal candidiasis.

[3] = test system: rats; conditions: intravenous (IV); cited from earlier work
[4] = test system: mice; conditions: intravenous (IV); cited from earlier work
[5] = test system: dogs; conditions: IV dose levels up to 85 mg/kg/day for 2 weeks; cited from earlier work
[6] = test system: rats; conditions: IV dose levels up to 150 mg/kg/day for one month; cited from earlier work
[7] = test system: rats; conditions: oral, up to 500 mg/kg/day; cited from earlier work
[8] = test system: Beagle dogs; conditions: cited from earlier work
[9] = test system: Cynomolgus monkeys; conditions: cited from earlier work
[10] = test system: Cynomolgus monkeys; conditions: cited from earlier work; remark: listed apart in the source
[11] = test system: rats; conditions: cited from earlier work
[12] = test system: pregnant rats; conditions: up to 500 mg/kg oral, gestation day 6 through 15; cited from earlier work
[13] = test system: cultured human lymphocytes; conditions: in vitro; cited from earlier work
[14] = in vivo; cited from earlier work
[15] = test system: patients with AIDS OR AIDS-related complex and HTLV-III/LAV viremia; conditions: cited from earlier work
[16] = test system: patients (AIDS) recovered from Pneumocystis carinii pneumonia (PCP) and late AIDS-Related Complex (ARC); conditions: cited from earlier work
[17] = Treatment of severe psoriasis in an individual with AIDS-related complex
[18] = one female dog, sacrificed on day 14

Cc1cn([C@H]2C[C@H](N=[N+]=[N-])[C@@H](CO[C@@H]3O[C@H](C(=O)O)[C@@H](O)[C@H](O)[C@H]3O)O2)c(=O)[nH]c1=O [GAZT, 5'-glucuronide of AZT]
activity of the metabolite ([1]; in vivo): inactive
metabolite identification ([1]; plasma and urine): major plasma and urinary metabolite
clearance from plasma (metabolite) ([1]; plasma): rapidly cleared from plasma
plasma level relative to the corresponding AZT level ([1]; plasma): 2-3 ×

Cc1cn([C@H]2C[C@H](N=[N+]=[N-])[C@@H](CO)O2)c(=O)[nH]c1=O [azidothymidine, 3'-azido-3'-deoxythymidine]
efficacy in relieving the progression of AIDS [2]: no efficacy in relieving the progression of this individual's AIDS
LD50 [3]: greater than 70 mg/kg
LD50 [4]: greater than 70 mg/kg
alterations [5]: No significant alterations were seen
changes [6]: no changes were noted
histologic changes in liver and kidney [7]: very minimal histologic changes in the liver and kidney of a few animals were observed
leukopenia and thrombocytopenia ([8]; Beagle dogs, oral, all dose levels (125, 250, 500 mg/kg/day), 2 weeks): Moderate to marked leukopenia and thrombocytopenia was noted at all dose levels
vomiting and fecal alterations ([8]; Beagle dogs, oral, high doses, daily for 2 weeks): Vomiting and fecal alterations (with blood) were seen in dogs receiving high doses
bone marrow and lymphoid tissue findings ([8]; Beagle dogs, oral, further studies): hypocellularity of the bone marrow; hypoactive lymphoid tissues were also noted
gross gastrointestinal findings ([8]; high dose dogs and a mid-dose female, high dose female): hemorrhage in the gastrointestinal tract in the high dose dogs and a mid-dose female, as well as a maturational defect with mucosal atrophy in the intestinal tract of the high dose female were observed
alkaline phosphatase, BUN, and creatinine [8, 18]: alkaline phosphatase, BUN, and creatinine were elevated
weight loss [8, 18]: significant weight loss
vomiting ([9]; Cynomolgus monkeys, high dose male, oral, 2 weeks): frequent vomiting in the high dose male
RBC, HCT, Hgb ([9]; all treatment levels (125, 250, 500 mg/kg/day), oral 2 weeks, values still within normal limits): a slight nondose-related decrease (values still within normal limits) in RBC, HCT, Hgb at all treatment levels
SGPT ([9]; treated males and the high dose female, values still within normal limits): a slight increase in SGPT (Values still within normal limits) in treated males and the high dose female
recovery of hematology values ([10]; 26-39 day post-dosing recovery period): These values returned to normal limits during the 26-39 day post-dosing recovery period
RBCs, hemoglobin, and hematocrit ([10]; 34, 100, or 300 mg/kg by gavage, day 21): dose-related decreases in RBCs, hemoglobin, and hematocrit at day 21
hemoglobin and hematocrit ([10]; remainder of treatment period after day 21): hemoglobin and hematocrit remained stable
RBCs ([10]; until the end of treatment): further reduced until the end of treatment
glucose ([11]; high dose female rats, day 89): A mild increase in glucose was observed only in high dose female rats on day 89
clinical observation (staining of the anogenital area) ([11]; high dose male rats): occasional staining of the anogenital area in high dose male rats
SGOT ([11]; high dose rats at various times): a mild decrease in SGOT in high dose rats at various times
hematologic changes or gross pathologic changes ([11]; rats, 13 weeks oral): no hematologic changes or gross pathologic changes
treatment related deaths ([11]; rats, 56, 167 or 500 mg/kg/day by gavage, 13 weeks): no treatment related deaths
maternal weight [12]: a slight decrease in maternal weight was noted
clastogenicity [13]: clastogenic
Cmax ([1]; Group A, IV, 1.0 mg/kg Q 8 hr): 0.44 ± 0.14 microgram/ml
Cmax ([1]; Group A, oral, 2.0 mg/kg Q 8 hr): 0.53 ± 0.11 microgram/ml
Cmax ([1]; Group B, IV, 2.5 mg/kg Q 8 hr): 1.17 ± 0.49 microgram/ml
Cmax ([1]; Group B, oral, 5.0 mg/kg Q 8 hr): 1.37 ± 0.58 microgram/ml
Cmax ([1]; Group C, IV, 2.5 mg/kg Q 4 hr): 1.06 ± 0.03 microgram/ml
Cmax ([1]; Group C, oral, 5.0 mg/kg Q 4 hr): 1.57 ± 0.81 microgram/ml
Cmax ([1]; Group D, IV, 5.0 mg/kg Q 4 hr): 2.28 ± 0.31 microgram/ml
Cmax ([1]; Group D, oral, 10.0 mg/kg Q 4 hr): 3.14 ± 0.73 microgram/ml
Cmax ([1]; Group E, IV, 7.5 mg/kg Q 4 hr): 4.71 ± 0.79 microgram/ml
Cmax ([1]; Group E, oral, 15.0 mg/kg Q 4 hr): 10.40 ± 3.47 microgram/ml
total body clearance ([1]; IV doses from 1.0 to 5.0 mg/kg): approximately 1900 ml/min/70 kg
dose excreted unchanged in the urine as AZT ([1]; IV dosing): about 25%
plasma decay after the end of infusion ([1]; IV): biexponential decay after the end of infusion indicating two-compartmental pharmacokinetics
mean half-life ([1]; all dose levels, IV and oral dosing): approximately 1.0 hr
dose proportionality of Cmax and AUC ([1]; between 5.0 and 7.5 mg/kg IV and 10.0 and 15 mg/kg oral): a disproportional increase in peak concentrations (Cmax) and area under the plasma-concentration time curve (AUC)
drug or metabolite accumulation ([1]; chronic IV or oral dosing): No unexpected drug or metabolite accumulation was observed
dose proportionality of concentrations ([1]; doses to 5.0 mg/kg IV and 10 mg/kg oral): increased proportionally with doses to 5.0 and 10 mg/kg, for IV and oral administration respectively, indicating dose-independent kinetics up to these dosages
renal clearance ([1]; estimated): about 500 ml/min
bioavailability ([1]; oral, all dose levels): 60-70%
cause of incomplete bioavailability ([1]; oral): appears to be due to first-pass metabolism, rather than reduced absorption
side effects [14]: hematologic abnormalities such as anemia, neutropenia, bone marrow toxicity, headache, mild CNS symptoms, insomnia
mild confusion or anxiety (number of patients) ([15]; 29 patients): Three
transient elevations in transaminases (number of patients) ([15]; 29 patients): Five
transient erythematous rash (number of patients) ([15]; 29 patients): one
decline in hemoglobin ([15]; by six weeks): all patients had some decline in hemoglobin by six weeks, the change was not proportional to the starting dose
deaths ([15]; during the year since the trial was initiated): Four
anemia which warranted dose reduction or temporary interruption ([15]; human, in vivo, po): Twenty of 28 patients
dose-limiting toxicity / response of neutropenia ([15]; human, in vivo): appeared to be the dose-limiting toxicity. Neutropenia responded favorably to reduction in dose of AZT
effect on electrolytes or renal or cardiac function ([15]; human, in vivo): no effect on electrolytes or renal or cardiac function
headache (number of patients) ([15]; human, in vivo): 8 patients
neutropenia (number of patients) ([15]; human, in vivo): 13 patients
generalized pruritus (number of patients) ([15]; one episode, 29 patients): one
bone marrow biopsies ([15]; three patients): megaloblastic changes
reversibility of anemia ([15]; when the drug is discontinued): reversible in most patients when the drug is discontinued
reduction in dosage or interruption of treatment ([16]; 250 mg every 4 hours (1.5 grams daily)): Many patients on AZT required a reduction in dosage or interruption of treatment, primarily because of anemia
deaths (AZT group) ([16]; 250 mg every 4 hours, as of Sept. 18, 1986, 16 in patients receiving placebo): one
patients requiring blood transfusions ([16]; human, in vivo): approximately 25%
decreases in hemoglobin and neutrophils ([16]; second month of therapy, dose decreased or drug discontinued): decreases in hemoglobin and neutrophils occurred during the second month of therapy and appeared to be reversible if the dose was decreased or drug discontinued
patients with greater than 25% reduction in hemoglobin ([16]; vs 13 of 137 patients receiving placebo, preliminary review): 47 of 145
psoriasis clearance ([17]; 800 mg orally per day): completely cleared
time to complete clearing of psoriasis ([17]; 800 mg orally per day): two to three
time to significant improvement in lesion pruritus ([17]; 800 mg orally per day): ≤ 24 h
lesion pruritus ([17]; 800 mg orally per day, within 24 hours): a significant improvement in the lesion pruritus
pruritus after AZT was held for 7 days and restarted at half dose ([17]; AZT held 7 days, restarted at half dose): The pruritus returned temporarily
anemia ([17]; after a month, restarted at half dose): The AZT was held for 7 days after a month for anemia
time until psoriasis began to clear ([17]; in vivo): 24 h
improvement of psoriasis ([17]; over a period several weeks): significant improvement over a period several weeks
nail regrowth and psoriasis at three months ([17]; three months): nail regrowth was normal and the psoriasis was completely clear
